According to patent publication US10435697B2, “Recombinant expression system that senses pathogenic microorganisms” (priority 2014, dated 2019):
Ends that are not written are not given here.

Key:
[1] = tested on: CqsS/CAI-1 quorum-sensing phosphorelay system of V. cholerae; test: CAI-1 sensing by two-plasmid system (CqsS, LuxU, LuxO; GFP under pQrr4); assay type: cell-based, Vibrio cholerae; settings: LuxO induced by arabinose
Text: In the test construct the pBAD promoter drives LuxO. […] This is due to the downregulation of pQrr4 promoter by the CqsS cascade originating form V. cholera. In contrast, no alteration of GFP expression was observed when arabinose was present, but CAI-1 was absent. […] The system is inducible by arabinose in order to add an additional level of control.
In the next step, a double plasmid system, with the CqsS (SEQ ID NO 6), LuxU (SEQ ID NO 7) and LuxO (SEQ ID NO 8) genes expressed on one plasmid and GFP (SEQ ID NO) under pQrr4 promoter (SEQ ID NO 19) on another was generated. Thus, this system comprises the CAI-1 sensor module, in which phosphorylated LuxO activates the Qrr4 promoter. In the test construct the pBAD promoter drives LuxO, which is inducible by arabinose.
In other words, the system changes its fluorescence with different concentrations of CAI-1.

V. cholerae [2] = settings: previously shown (Da Silva 2008; Moghaddam 2012; Yaraksa 2014); cited from earlier work
E. coli Top10 = test: Growth curves (OD600) of E. coli Top10 after induced expression of the peptide from a plasmid; assay type: cell-based, Escherichia coli
Text: To evaluate the activity of Microcin S (mcsS) and Microcin immunity protein (mcsI) in E. coli Top10 cells five different plasmids were constructed (FIG. 10).
Moreover, also the effect of Microcin immunity protein (mcsI) in the presence of Microcin S was studied. For this, the mcsI gene was introduced into the pBbE8K+McsS-YebF-I and pBbE8K+McsS-I plasmids resulting in pBbE8K+McsI+McsS-YebF-II and pBbE8K+McsI+McsS-II, respectively. In these constructs, mcsS expression is controlled by an araC pBAD activator-promoter (SEQ ID NO), rendering Microcin S expression inducible by L-arabinose. In contrast, mcsI expression is constitutively ON when using the rrnB promoter (SEQ ID NO 28).
Furthermore, also the effect of Microcin whole cascade in E. coli Top10 growing in liquid culture with 0.125% arabinose and without arabinose after being transformed with construct 5 of FIG. 12 was studied.
For example, in the case of CM11 (P3) the P3 gene was cloned under the arabinose promoter (pBAD) in the pBbE8K vector resulting in the pBbE8K+P3 plasmid. In other words, P3 expression in this construct is controlled by an araC PBAD activator-promoter, rendering P3 expression inducible by L-arabinose.
In addition, in order to characterize the lysis activity in E. coli, the lysis E7 gene was cloned under the tetracycline promoter (pTet) in the pBbA2C vector resulting in the pBbA2C+E7 plasmid.

pathogenic E. coli = settings: Yaraksa et al. 2014; cited from earlier work
[3] = tested on: V. cholerae (A1522 Rugose-GFP); assay type: cell-based, Vibrio cholerae; settings: LB broth, 18-20 h at 37° C., absorbance and GFP fluorescence monitored, DMSO control
Experimental: […]. The target cells were effectively killed at an MIC of 50 μM. As a control only DMSO was used. As the target cells express GFP embedded into its chromosome, the GFP fluorescence (B) along with the absorbance (growth) (A) was monitored in this experiment.
(§1) Moreover, a minimum inhibitory concentration (MIC) assay was conducted using CM11 (P3). The medium used for the broth microdilution test was LB Broth and the cells were V. cholera A1522-Rugose-GFP and E. coli Nissile strains. Overnight cultures were transferred into 5 ml of LB and were grown at 37° C. for 2-3 h. To approximate the density of 0.5 McFarland standard, this suspension with the inoculum concentration of 108 colony forming units (CFU/ml) was then diluted to 106 CFU/ml with the LB broth. Peptide P3 stock solution of 1000 μg/ml was prepared using DMSO. Serial two-fold dilutions of the peptide (P3) with the following concentration (2-100 μg/ml) were prepared with LB broth and placed in 96-well microtiter plates and the lowest concentration inhibiting visible growth after 18-20 h at 37° C. was recorded as MIC (see FIGS. 16 and 17).

E. coli Nissile = assay type: cell-based, Escherichia coli; settings: LB broth, 18-20 h at 37° C., DMSO control
Experimental: FIG. 17 MIC of the synthetic peptide CM11 (P3) against E. coli Nissile. […] As a control only DMSO was used.
as §1

V. cholerae [4] = test: Microbroth dilution assay of purified Microcin S on V. cholerae; assay type: cell-based, Vibrio cholerae
Experimental: (§2) In addition, the Microcin S peptide was purified to test its efficacy on V. cholerae and E. coli. […] Subsequently, the cells were pelleted by centrifugation at 4000 g for 20 min and lysed using a sonicator. Purification of Microcin S was carried out using Qiagen Ni-NTA fast start kit. The eluate was dialysed using Slide-A-Lyzer dialysis cassette and a 2 KDa cutoff (Life Technologies) for 4 hrs in 1×PBS. The dialysed samples were concentrated by ultra filtration using a molecular mass cutoff membrane (Amicon Ultra-15 Centrifugal Filter Unit, Millipore). As the estimated size of the protein is approximately 12 kDa, the first concentration was done using a 30 kDa cutoff membrane where the flow-through was collected and subsequently passed through a 3 kDa cutoff membrane. The resulting retentate was collected and the concentration was quantified using Quant-IT protein assay kit (Life Technologies).
(§3) The induced sample expressed has Microcin S (FIG. 13B) and the fluorescence reading from the Quant-it assay was 1135, which was close to a concentration of 200 ng/μl, calculated from the standard curve (FIG. 13A). […] After the presence of Microcin S was confirmed from the purified sample, a microbroth dilution assay was carried out to measure the minimum inhibitory concentration of purified Microcin S on V. cholerae and E. coli. […]

E. coli wt = test: Microbroth dilution assay of purified Microcin S on E. coli; assay type: cell-based, Escherichia coli
Experimental: as §2, §3

[5] = expression induced with 0.125% L-arabinose (pBAD), vs un-induced

With `CCCCCCCCCC(=O)[C@@H](O)CC` [CAI-1, (S)-3-hydroxytridecan-4-one] the “GFP expression on addition of CAI-1” value [1] was “a drop in the GFP expression was observed”.

For CM15 (KWKLFKKIGAVLKVL-NH2), the “activity against V. cholerae” value (V. cholerae [2]) is listed as “show inhibitory activity”.

In the case of G12.21 (RRVSRRPMRRYRSRRPRRLV), the “activity against V. cholerae” value (V. cholerae [2]) is listed as “effectively control the growth of V. cholerae both in vitro and in vivo”.

In the case of G14.15 (GRSRWRRVSRRFMRR), the “activity against V. cholerae” value (V. cholerae [2]) is listed as “effectively control the growth of V. cholerae both in vitro and in vivo”.

With “Lysis E7 (MKKITGIILLLLAAIILAACQANYIRDVQGGTVSPSSTAELTGVETQ; Secretory peptide)” the “time to lyse E. coli” value (E. coli Top10; 200 nM atc) was ≤ 4 h and the “OD600 of host cell after induction (lysis)” value (E. coli Top10; pBbA2C+E7, 200 nM anhydrotetracycline, vs un-induced) was “reduced significantly due to the lysis”.

For “Magainin 2 (GIGKFLHSAKKFGKAFVGEIMNS; listed as Xenopus laevis)”, the “activity against V. cholerae” value (V. cholerae [2]) is given as “good killing efficiency” and the “activity against pathogenic E. coli” value (pathogenic E. coli) is given as “good killing efficiency”.

For McsS-YebF, the “growth (OD600) of host cell after induction” value (shortened to “growth (OD600) of host cell”) (E. coli Top10; [5]) was “complete growth inhibition”.

In the case of WKLFKKILKVL-NH2 [CM11], the MIC [3] is reported as 50 µM, the MIC (E. coli Nissile) is reported as 25 µM and the “growth (OD600) of host cell” value (E. coli Top10; pBbE8K+P3, induced with 0.2% L-arabinose, vs un-induced, listed as CM11 (P3)) is reported as “reduces the growth of E. coli”. For the same molecule, the “growth (OD600) of host cell” value (E. coli Top10; pBbE8K+P3, induced with 0.2% L-arabinose, vs un-induced, listed as P3) was “reduced significantly” and the “activity against V. cholerae” value (V. cholerae [2]) was “show inhibitory activity”.

B1: Microcin S (protein, listed as Escherichia coli)
chain: MSNIRELSFDEIALVSGGNANSNYEGGGSRSRNTGARNSLGRNAPTHIYSDPSTVKCANAVFSGMVGGAIKGGPVGMTRGTIGGAVIGQCLSGGGNGNGGGNRAGSSNCSGSNVGGTCSR
In the case of B1, the inhibitory activity (V. cholerae [4]) is reported as “has inhibitory activity”, the Minimal inhibition concentration (V. cholerae [4]; LB broth, 4 hrs, OD) is reported as 100 µg/mL and the inhibitory activity (E. coli wt) is reported as “has inhibitory activity”. The Minimal inhibition concentration (E. coli wt; LB broth, 4 hrs, OD) was 100 µg/mL, the “growth (OD600) of host cell” value (E. coli Top10; [5]) was “reduced OD600 readings” and the “growth (OD600) of host cell” value (E. coli Top10; expression induced with 0.125% L-arabinose (pBAD), vs un-induced, listed as McsS) was “complete growth inhibition”.
